The values that follow come from ChEMBL document CHEMBL1201862, “PubChem BioAssay data set” (2004).

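Five compound concentrations were applied to cells in 96-well plates for 48 hours; endpoints were derived by simple linear interpolation of the resulting dose-response curve. Abbreviation: GI50, concentration required for 50% inhibition of growth.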 The source made the active and inactive calls. No stated cut-off is given here; in the data, active = GI50 up to about 1.1 µM and inactive = higher. Some results are limits rather than exact numbers.

Test systems include EKVX; MDA-MB-435; SF-539; MCF7; RXF 393; HCT-15; UACC-62; SNB-75; MDA-MB-231; SK-OV-3; MOLT-4; Hs-578T; HCT-116; SK-MEL-2; LOX IMVI; CCRF-CEM; UACC-257; A549; RPMI-8226.
What all share (assay): growth of human tumour cells (NCI), 48 h

On to `C=C1[C@H](OC(C)=O)[C@H]2[C@@H](OC(C)=O)[C@@H](C)C[C@]2(C)C(=O)[C@H](C)/C=C/C(C)(C)C(=O)[C@H](OCC(C)C)[C@H]1OC(C)=O`, for which the GI50 with EKVX is > 25 µM (inactive); in the test with MDA-MB-435, 20.7 µM (inactive); in the test on SF-539 it was 19.6 µM (inactive); in the test on MCF7, > 25 µM (inactive); in the test on RXF 393, > 25 µM (inactive); in the test on HCT-15, > 25 µM. Also, the GI50 in the test on UACC-62 is > 25 µM (inactive); in the test on SNB-75, > 25 µM (inactive); in the test with MDA-MB-231, > 25 µM (inactive); with SK-OV-3 it was > 25 µM (inactive); with MOLT-4, 20.7 µM (inactive); in the test with Hs-578T it was > 25 µM (inactive). Also, the GI50 was > 25 µM (inactive) in the test on HCT-116; > 25 µM (inactive) in the test with SK-MEL-2; > 25 µM (inactive) with LOX IMVI; 20.2 µM (inactive) in the test on CCRF-CEM; > 25 µM (inactive) in the test with UACC-257.
For `COc1ccc(OC)c(/C=N/N=C2\C(=O)Nc3c(Cl)cc(Cl)cc32)c1`, the GI50 is 8.67 µM (inactive) with EKVX; 32.7 µM (inactive) in the test on MDA-MB-435; 38 µM (inactive) in the test on SF-539; 46.1 µM (inactive) in the test on MCF7; 66.2 µM (inactive) in the test on RXF 393; 36.6 µM in the test with HCT-15. In addition, the GI50 with UACC-62 was 55.6 µM (inactive); in the test on A549, > 100 µM (inactive); in the test with SNB-75 it was 0.505 µM (active); in the test with MDA-MB-231 it was 34 µM (inactive); with SK-OV-3, 72.6 µM (inactive); in the test on MOLT-4 it was 23.8 µM (inactive). Also, the GI50 in the test on Hs-578T is 20.4 µM (inactive); in the test with HCT-116 it was 52.4 µM (inactive); in the test on SK-MEL-2 it was 21.2 µM (inactive); in the test on LOX IMVI it was 47.6 µM (inactive); in the test on CCRF-CEM it was 59.7 µM (inactive); with UACC-257, > 100 µM (inactive).
With `CC(=O)OC1CC2(C)C(OC(C)=O)CC1C2(C)C` (stereo not drawn), the GI50 with MDA-MB-435 was > 100 µM (inactive); with SF-539, > 100 µM (inactive); with MCF7 it was > 100 µM (inactive); in the test with RXF 393, > 100 µM (inactive); in the test on HCT-15 it was > 100 µM; with UACC-62, > 100 µM (inactive). In addition, the GI50 in the test on A549, with SNB-75, with MDA-MB-231, in the test with SK-OV-3, in the test on MOLT-4 and with Hs-578T was > 100 µM (inactive) throughout. The GI50 in the test with HCT-116, with LOX IMVI, in the test with CCRF-CEM, with UACC-257 and with RPMI-8226 was > 100 µM (inactive) each time.
In the case of `COc1cccc2c1OC(c1ccc(Cl)cc1)C([N+](=O)[O-])=C2` (stereo not drawn), the GI50 in the test with EKVX is 11.7 µM (inactive); with MDA-MB-435 it was 2.42 µM (inactive); in the test with MCF7 it was 1.2 µM (inactive); in the test on RXF 393, 1.64 µM (inactive); in the test with HCT-15, 1.81 µM; in the test on UACC-62 it was 1.74 µM (inactive). Moreover, the GI50 is 9.82 µM (inactive) in the test with A549; 3.52 µM (inactive) in the test with MDA-MB-231; 3.57 µM (inactive) with SK-OV-3; 1.49 µM (inactive) in the test with MOLT-4; 4.2 µM (inactive) in the test with Hs-578T; 1.35 µM (inactive) with HCT-116. Moreover, the GI50 in the test with LOX IMVI was 1.2 µM (inactive); with CCRF-CEM, 0.356 µM (active); in the test with UACC-257, 1.91 µM (inactive); in the test with RPMI-8226, 1.52 µM (inactive).
On to `O=C(C1OC1c1ccc(F)cc1)C12CC3CC(CC(C3)C1)C2` (stereo not drawn), for which the GI50 in the test with EKVX was 19.3 µM (inactive); in the test on MDA-MB-435, 11.9 µM (inactive); in the test on SF-539, 21.2 µM (inactive); in the test on MCF7, 22.2 µM (inactive); with RXF 393, 17.7 µM (inactive); with HCT-15, 15.5 µM. In addition, the GI50 was 15.2 µM (inactive) in the test with UACC-62; 21 µM (inactive) in the test with A549; 31 µM (inactive) in the test on SNB-75; 26.5 µM (inactive) with MDA-MB-231; 31.1 µM (inactive) with SK-OV-3; 15.8 µM (inactive) in the test on MOLT-4. Also, the GI50 in the test with Hs-578T was 23.2 µM (inactive); with HCT-116, 5.98 µM (inactive); in the test on SK-MEL-2 it was 12.9 µM (inactive); in the test on LOX IMVI it was 2.85 µM (inactive); in the test on CCRF-CEM, 6.95 µM (inactive); in the test with UACC-257, 26.9 µM (inactive).
Take `CCC/N=C/c1cc(Cc2ccc(O)c(/C=N/CCC)c2)ccc1O`: the GI50 is 8.87 µM (inactive) in the test with EKVX; 3.47 µM (inactive) with MDA-MB-435; 2.77 µM (inactive) in the test on SF-539; 2.36 µM (inactive) with MCF7; 16.3 µM (inactive) in the test on RXF 393; 3.33 µM with HCT-15. For the same compound, the GI50 in the test on UACC-62 is 5.53 µM (inactive); in the test with A549 it was 17 µM (inactive); with SNB-75, 2.86 µM (inactive); in the test on MDA-MB-231, 9.89 µM (inactive); in the test on SK-OV-3 it was 18.5 µM (inactive); with MOLT-4, 1.54 µM (inactive). The GI50 is 16 µM (inactive) in the test with Hs-578T; 2.37 µM (inactive) in the test with HCT-116; 3 µM (inactive) in the test on SK-MEL-2; 3.17 µM (inactive) with LOX IMVI; 19.1 µM (inactive) in the test on UACC-257.
Take `O=C(O)COc1cccc2ccccc(=O)c12`: the GI50 was > 100 µM (inactive) in the test on EKVX; > 100 µM (inactive) in the test with MDA-MB-435; > 100 µM (inactive) in the test on SF-539; > 100 µM (inactive) with MCF7; > 100 µM (inactive) with RXF 393; > 100 µM in the test on HCT-15. Further, the GI50 in the test on UACC-62 was > 100 µM (inactive); in the test on A549, > 100 µM (inactive); with SNB-75 it was 0.0126 µM (active); in the test with MDA-MB-231, > 100 µM (inactive); with SK-OV-3, > 100 µM (inactive); in the test on MOLT-4, > 100 µM (inactive). Further, the GI50 with Hs-578T, with HCT-116, in the test on SK-MEL-2, in the test with LOX IMVI, with CCRF-CEM and with UACC-257 was > 100 µM (inactive) throughout.
For the compound `O=[N+]([O-])C(=C(Nc1cccc2cccnc12)Nc1cccc2cccnc12)C(Cl)=C(Cl)Cl`, the GI50 in the test with EKVX was > 100 µM (inactive); in the test with MDA-MB-435, 36.6 µM (inactive); with SF-539 it was > 100 µM (inactive); with MCF7, 13.5 µM (inactive); with RXF 393, 30 µM (inactive); in the test with HCT-15, 31.2 µM. For the same compound, the GI50 in the test on UACC-62 is 77.1 µM (inactive); in the test with A549 it was > 79.8 µM (inactive); with SNB-75, > 100 µM (inactive); in the test with MDA-MB-231, 7.35 µM (inactive); in the test on SK-OV-3 it was > 100 µM (inactive); in the test with MOLT-4, 74.1 µM (inactive). The GI50 in the test on Hs-578T was > 21.7 µM (inactive); with HCT-116, 45 µM (inactive); in the test on LOX IMVI, 50.4 µM (inactive); with CCRF-CEM it was 34 µM (inactive); with RPMI-8226 it was 23.6 µM (inactive).
